Data from PubChem BioAssay (NCI).
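Tested at 5 concentrations; 48 h exposure; 96-well plates; endpoints linearly interpolated, else capped at highest concentration. The concentration for 50% growth inhibition is given as GI50. TGI: total growth inhibition.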 Where a SMILES comes first, the peptide text is derived from it. The star is where a group is joined. Boc = CC(C)(C)OC(=O)*

Tests used:
Test in all cases: growth of human tumour cells (NCI), 48 h
A549 NSCLC = tested on: A549 NSCLC
BT-549 breast = tested on: BT-549 breast
CAKI-1 renal = tested on: CAKI-1 renal
HCC-2998 colon = tested on: HCC-2998 colon
KM12 colon = tested on: KM12 colon
NCI/ADR-RES ovarian = tested on: NCI/ADR-RES ovarian
OVCAR-4 ovarian = tested on: OVCAR-4 ovarian
SF-268 CNS = tested on: SF-268 CNS
TK-10 renal = tested on: TK-10 renal
NCI-H460 lung = tested on: NCI-H460 lung

Row | SMILES | TGI (A549 NSCLC) [µM] | TGI (BT-549 breast) [µM] | TGI (CAKI-1 renal) [µM] | TGI (HCC-2998 colon) [µM] | TGI (KM12 colon) [µM] | TGI (NCI/ADR-RES ovarian) [µM] | TGI (OVCAR-4 ovarian) [µM] | TGI (SF-268 CNS) [µM] | TGI (TK-10 renal) [µM] | TGI (NCI-H460 lung) [µM] | GI50 (A549 NSCLC) [µM] | GI50 (BT-549 breast) [µM] | GI50 (CAKI-1 renal) [µM] | GI50 (HCC-2998 colon) [µM] | GI50 (NCI/ADR-RES ovarian) [µM] | GI50 (OVCAR-4 ovarian) [µM] | GI50 (SF-268 CNS) [µM]
1 | Cc1ccc(Nc2nc(=O)[nH]c(=O)[nH]2)cc1N=[N+]=[N-] | > 100 | > 100 | > 100 | > 100 | > 100 | > 100 | > 100 | > 100 | > 100 |  |  |  |  |  |  |  | 
2 | COc1ccc(CCCC(=O)O)c(C)c1 | > 100 | > 100 | 51.1 |  | > 100 | > 100 | > 100 | > 100 | > 100 | > 100 |  |  |  |  |  |  | 
3 | CC1(C)C[C@H](O)[C@H](O)[C@]23C(=O)O[C@H](O)[C@H]2C(C=O)=CC[C@@H]13 | > 100 | > 100 | > 100 | > 100 | > 100 | > 100 |  | > 100 | > 100 | > 100 |  |  |  |  |  |  | 
4 | COc1ccc(C(C#N)NCCCCCCNC(C#N)c2ccc(OC)cc2)cc1 (configuration not stated) | > 100 | > 100 | > 100 | > 100 | > 100 | > 100 | > 100 | > 100 | > 100 |  |  |  |  |  |  |  | 
5 | CC(NC(=O)C(N)CC(=O)O)NC(=O)N1CCOCC1 (configuration not stated) | > 100 | > 100 | > 100 |  | > 100 | > 100 | > 100 | > 100 | > 100 | > 100 |  |  |  |  |  |  | 
6 | COc1ccc(Nc2nc(N)c(C(=O)c3ccccc3)s2)cc1 | > 74.5 | > 84.5 | 33.3 |  | > 19.8 |  | > 60.8 | > 58.1 | > 100 | 19.9 |  |  |  |  |  |  | 
7 | O[C@H]1[C@H](O)[C@H](O)CN2CCC[C@@H](O)[C@H]12 | > 100 | > 100 | > 100 | > 100 | > 100 | > 100 | > 100 | > 100 | > 100 |  |  |  |  |  |  |  | 
8 | COc1ccc(Cl)cc1NC(=O)c1c(NC(=O)C(F)(F)C(F)(F)F)sc2c1CCCCC2 | > 100 | 7.23 | 4.86 | > 100 |  | 8.37 | 5.64 | > 100 |  |  | 2.54 | 2.06 | 1.03 | 1.88 | 1.8 | 1.57 | 1.09
9 | Cn1c2ccccc2n2c(=O)c3cccnc3c(C#N)c12 |  | > 100 | > 100 |  | > 100 | > 100 | > 100 | > 100 | > 100 | > 100 |  |  |  |  |  |  | 
10 | CCn1c(-c2ccc(C)cc2)cs/c1=N\C(P(=O)(O)O)P(=O)(O)O | > 100 | > 100 | > 100 | > 100 | > 100 | > 100 |  | > 100 | > 100 | > 100 |  |  |  |  |  |  | 
11 | S=C(c1c[nH]c2ccccc12)N1CCN(c2ccccc2)CC1 |  | > 100 | > 100 |  | > 100 | > 100 |  | > 100 | > 100 | > 100 |  |  |  |  |  |  | 
12 | O=C1/C(=C/c2cccs2)NC(=S)N1CN1CCOCC1 | > 100 |  |  |  | > 100 | > 100 |  | > 100 | > 100 |  |  |  |  |  |  |  | 
13 | Nc1nc(N)c2nnn(C[C@H]3CC[C@@H](CO)C3)c2n1 | > 100 | > 100 | > 100 | > 100 | > 100 | > 100 |  | > 100 | > 100 | > 100 |  |  |  |  |  |  | 
14 | COc1ccc(CCc2ccc(O)c(C(=O)O)c2)cc1OC | > 100 |  | > 100 | > 100 | > 100 | > 100 | > 100 | > 100 | > 100 | > 100 |  |  |  |  |  |  | 
15 | C=Cc1cc2c(cc1O)CC[C@@H]1[C@@H]2CC[C@]2(C)[C@@H](O)CC[C@@H]12 | 19.9 |  | 20.8 | 25.4 | 14.9 | 5.3 | 26.9 | 21.9 | 38.3 | 21.1 |  |  |  |  |  |  | 
16 | CCOCC(NC(=O)C(CC(C)C)NC(=O)OC(C)(C)C)C(N)=O (stereo not drawn) (Boc-Leu-Ser(Et)-NH2; configuration not given here) | > 100 | > 100 | > 100 |  | > 100 | > 100 | > 100 | > 100 | > 100 |  |  |  |  |  |  |  | 
17 | O=c1c(-c2ccccc2Cl)coc2cc(F)ccc12 | > 100 | 48.5 | > 100 |  | 71.8 | 46.7 | > 100 | > 100 | > 100 | > 100 |  |  |  |  |  |  | 
18 | CC1C(c2ccc3c(c2)OCO3)c2cc3c(cc2OC1N1CCCCC1)OCO3 (configuration not stated) | > 100 |  | 79.9 | > 100 | > 100 | > 100 |  | > 100 | > 100 | > 100 |  |  |  |  |  |  | 
19 | O=c1c(O)c(-c2cc(O)c(O)cc2O)oc2cc(O)c(C3OC(CO)C(O)C(O)C3O)c(O)c12 (configuration not stated) | > 100 | > 100 |  |  | > 100 | > 100 | > 100 | > 100 | > 100 | > 100 |  |  |  |  |  |  | 
20 | COc1cc2cc(C(=O)N3CC(CCl)c4c3cc(N(C)C)c3ccccc43)[nH]c2c(OC)c1OC (configuration not stated) |  | 5.91 | < 0.01 | 0.0809 | 1.09 |  | 0.114 | 0.016 | > 100 |  |  |  |  |  |  |  | 
21 | CN(C)CCNC(=O)c1ccc(NCCCN(C)CCCNc2ccc(C(=O)NCCN(C)C)c3[nH]c4ccc([N+](=O)[O-])cc4c(=O)c23)c2c(=O)c3cc([N+](=O)[O-])ccc3[nH]c12 | 0.64 | 2.64 | 3.75 | 0.254 |  | 3.58 | 1.55 |  | 1.38 | 0.169 |  |  |  |  |  |  | 
22 | O=C1OC(C2OC(=O)c3cc(O)c(O)c(O)c3-c3c(O)c(O)c4oc(=O)c5c(c(O)c(O)c6oc(=O)c3c4c65)-c3c(cc(O)c(O)c3O)C(=O)OCC2O)C2OC(=O)c3c(c(O)c(O)c(O)c3[C@H]2O)-c2c1cc(O)c(O)c2O (some centres not stated) | > 100 | > 100 | 22.4 | > 100 | 63 | 73.5 | 46 | 78.5 |  | > 100 |  |  |  |  |  |  | 
23 | Cc1ccc(Nc2sc(C)cc2C#N)c([N+](=O)[O-])c1 | > 100 | > 100 | > 100 | > 100 | > 100 | > 100 | > 100 | > 100 |  | > 100 |  |  |  |  |  |  | 
24 | Fc1cc(-c2ncc(Cl)cc2Cl)c2cccccc1-2 | > 100 | > 100 | > 100 | > 100 | > 100 | > 100 |  | > 100 | > 100 | > 100 |  |  |  |  |  |  | 
